# From patent US9393250B2, “Phthalocyanine compounds useful as RecA inhibitors and methods of using same” (University of Saskatchewan, priority 2012, dated 2016)
# Key:
# [1] = tested on: E. coli strain ATCC25922; test: Antibiotic sensitivity assay (CFUs/ml), E. coli; format: cell-based, Escherichia coli
# Description: (§1) Bacterial cultures were diluted to 10^5 cells/mL in LB broth (ATCC25922) or MH broth (ATCC27853, ATCC29212, ATCC29213). Antibiotics and/or phthalocyanines were added at indicated concentrations and the culture was incubated at 37° C. Samples were collected at 0, 24, 48, and 72 hours and plated on LB agar (ATCC25922) or tryptic soy blood agar (ATCC27853, ATCC29212, ATCC29213) to determine CFUs/ml.
# The ability of 4,4-Fe-PcTs and 3,4-Cu-PcTs to potentiate the activity of ciprofloxacin (abbreviated “CFX”) was tested. Ciprofloxacin inhibits DNA gyrase in bacteria, causing accumulation of double-stranded DNA breaks (DSBs) and inducing the SOS response. The inventors characterized the ability of 4,4-Fe-PcTs and 3,4-Cu-PcTs to potentiate the activity of ciprofloxacin in the pathogenic E. coli strain ATCC25922, which was used previously by Cirz et al. to evaluate the role of SOS response proteins in antibiotic resistance.
# [2] = tested on: Pseudomonas aeruginosa ATCC27853; test: Antibiotic sensitivity assay (CFUs/ml), P. aeruginosa; format: cell-based; settings: compound 25 μM; ciprofloxacin 6.5 μM
# Description: as §1
# (§2) To confirm that the activity of 4,4-Fe-PcTs was not specific to the gram-negative ATCC25922 E. coli, the ability of 4,4-Fe-PcTs to potentiate the activity of ciprofloxacin in another gram-negative (Pseudomonas aeruginosa ATCC27853) strain and two gram-positive (Staphylococcus aureus ATCC29213 and Enterococcus faecalis ATCC29212) strains was evaluated.
# [3] = tested on: Staphylococcus aureus ATCC29213; test: Antibiotic sensitivity assay (CFUs/ml), S. aureus; format: cell-based; settings: compound 25 μM; ciprofloxacin 6.5 μM
# Description: as §1, §2
# [4] = tested on: ATCC29522 cells; test: Biofilm formation assay (crystal violet); format: cell-based, Escherichia coli; settings: Fe-PcTs 25 μM; ciprofloxacin 40 nM; plastic surface, 96-well plate
# Description: Biofilm formation on a plastic surface was analyzed using a 96-well plate (Falcon) as described previously. ATCC29522 cells were diluted in LB broth to 1×10^5 CFUs/ml. A 100 μl aliquot of cells was added to each well in the plate. Ciprofloxacin (CFX) was then added at a final concentration of 40 nM to each well and plates were incubated at 37° C. for 20 hours. Wells were aspirated and washed three times with 150 μl of PBS. Wells were stained with 120 μl of 0.1% crystal violet (Fisher) for 20 minutes. The crystal violet stain was aspirated and wells were washed three times with 150 μl of PBS. The plate was air-dried and the dye bound to adherent cells was resolubilized with 150 μl of 30% (v/v) glacial acetic acid (Fisher). The plate was incubated at room temperature for 20 minutes with shaking. The biofilm formation was quantified by measuring the OD600 nm using a plate reader.
# [5] = tested on: ATCC25922 E. coli; test: Ciprofloxacin resistance assay and reconstruction assay (in vitro mutagenesis); format: cell-based, Escherichia coli
# Description: An in vitro mutagenesis assay [1] was used to measure the ability of 4,4-Fe-PcTs to block the acquisition of ciprofloxacin-induced resistance in ATCC25922 E. coli. ATCC25922 cells were plated on media containing ciprofloxacin in the presence or absence of 4,4-Fe-PcTs and cultured for 10 days. Colonies that appeared early in the assay (days 1 and 2) are believed to arise from pre-existing ciprofloxacin resistance mutations [1]. Colonies that appear later in the incubation (days 3 to 8) are due to ciprofloxacin resistance mutations acquired during exposure to ciprofloxacin or pre-existing mutations with a slow growth phenotype [1].
# To distinguish between these two types of mutants, a reconstruction assay that tests for the time it takes for colonies to appear in the presence of ciprofloxacin was used. Colonies that appear at least two days faster than they appeared in the original ciprofloxacin mutagenesis screen were classified as colonies that acquire resistance after exposure to ciprofloxacin [1]. Colonies that appeared in the same number of days as in the ciprofloxacin resistance assay were classified as colonies with pre-existing mutations [1].
# Twenty-five independent colonies of ATCC2592 were used to inoculate 25 LB broth cultures that were incubated at 37° C. for 25 hours. Viable cell counts in these cultures were determined by plating serial dilutions onto LB agar plates. One hundred microliters from each culture (˜10^8 cells) were plated in duplicate on LB agar containing ciprofloxacin (CFX) (40 nM) or ciprofloxacin (40 nM) and 4,4-Fe-PcTs (25 μM) (CFX+4,4-Fe-PcTs). Three additional 100 μL aliquots from three cultures were also plated on the same media to determine the number of viable cells per day. At 24 hour intervals, visible colonies were counted, removed from the plate, and stored at −80° C. for later use in the reconstruction assay and sequencing. Every 24 hours, in parallel with the resistance assay, small plugs of agar between visible colonies were excised from resistance assay plates. Agar plugs were homogenized in M9 buffer. Dilutions were plated in duplicate on LB plates to determine the total number of viable cells per day. The cells were also plated on LB containing CFX (40 nM) to determine if any CFX-resistant colonies remained after excision [1].
# Reconstruction assays were used to determine whether ciprofloxacin resistant colonies were due to post-exposure mutation or due to mutation prior to ciprofloxacin exposure. Ciprofloxacin resistant clones isolated from the resistance assay were grown to saturation in LB media in 96 well plates. Cultures were then replica-plated in duplicate using a 96-pin replicator on LB plates to confirm viability and LB plates containing ciprofloxacin (40 nM) to confirm ciprofloxacin resistance. Ciprofloxacin-resistant clones that were isolated in the presence 4,4-Fe-PcTs were replica plated on LB and LB containing 4,4-Fe-PcTs (25 μM) and ciprofloxacin (40 nM). Clones that were resistant before ciprofloxacin exposure were defined as clones that formed colonies on the ciprofloxacin-containing media in the same number of days in the reconstruction assay as in the original resistance assay. Clones that mutated after exposure to ciprofloxacin were defined as clones that formed colonies earlier than in the original resistance assay [1].
# The rate of ciprofloxacin resistance was defined as the number of ciprofloxacin-resistant mutants per viable cell that evolve as a function of time. […]
# [6] = tested on: ATCC25922 cells; test: Neutropenic murine bacterial thigh infection model; format: in vivo, Escherichia coli
# Description: Six-eight week-old, specific-pathogen-free, female CD-1 mice (weight, 25-35 g) were rendered neutropenic by intraperitoneal injection with 150 mg/kg cylcophosphamide (Sigma) four days before infection and 100 mg/kg cyclophosphamide 24 hours before infection. LB broth cultures inoculated from fresh ATCC25922 colonies and cells were grown to the log phase (OD600 of approximately 0.3) and diluted 1:1000 in LB broth. Thigh infections were produced by injecting 50 μl (approximately 10^6 CFUs) of diluted cultures into halothane-anesthetized mice. One group of mice was administrated inteperitoneal injection of 4,4-Fe-PcTs in conjunction with the second dose of cyclophosphamide (24 hours prior infection) (4,4-Fe-PcTs (pre)+CFX). Starting two hours after infection (defined as time zero), mice were administered subcutaneous injections of either 1 mg/kg ciprofloxacin alone (CFX) or co-treatment of 1 mg/kg ciprofloxacin with interperitoneal injection of 10 mg/kg 4,4-Fe-PcTs (4,4-Fe-PcTs+CFX and 4,4-Fe-PcTs (pre)+CFX) every 24 hours for 3 days. After 48 and 72 hours, three mice from each group were sacrificed, and their thighs removed and homogenized to determine the number of viable bacterial cells for both ciprofloxacin-sensitive and ciprofloxacin-resistant ATCC25922 cells. Serial dilutions of homogenates of the infected thigh were plated on LB agar (CFX Sensitive) and LB agar plates containing ciprofloxacin (40 nM) (CFX Resistant) to count viable cells for each of the three treatment groups.
# [7] = target: EcRecA (Escherichia coli, UniProt P0A7G6); settings: compound 10 μM; poly-(dT)36-stimulated; relative to reaction without inhibitor
# Chain of EcRecA (P0A7G6 whole entry): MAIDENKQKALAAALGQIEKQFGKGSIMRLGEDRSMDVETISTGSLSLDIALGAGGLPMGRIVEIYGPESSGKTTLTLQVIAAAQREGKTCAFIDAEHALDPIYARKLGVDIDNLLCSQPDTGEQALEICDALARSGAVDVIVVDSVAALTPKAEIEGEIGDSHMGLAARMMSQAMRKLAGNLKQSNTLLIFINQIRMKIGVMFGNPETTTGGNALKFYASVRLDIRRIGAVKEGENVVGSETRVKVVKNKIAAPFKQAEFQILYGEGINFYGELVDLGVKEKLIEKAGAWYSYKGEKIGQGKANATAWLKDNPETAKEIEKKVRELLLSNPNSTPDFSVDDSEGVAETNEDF
# Description: An ATPase assay [18] was used to screen a set of commercially available anionic, aromatic molecules for inhibitors of RecA ATPase activity. The release of inorganic phosphate by ATP hydrolysis was monitored using a Malachite Green phosphate assay [18]. The ssDNA-dependent ATPase reaction contained 1 μM EcRecA, 6 μM ssDNA (poly-(dT)36, concentration in nucleotides), 5 mM ATP, 50 mM Tris-Hepes buffer at pH 7.4, 10 mM MgCl2, 0.1% v/v 2-mercaptoethanol, and indicated amounts of 4,4-Fe-PcTs or 3,4-Cu-PcTs. Phosphate levels were measured by transferring 25 μl of ATPase reaction to 475 μl of malachite green phosphate assay, which contained 0.033% w/v Malachite Green, 1.3% w/v ammonium molybdate. 1.0 M HCl was used to monitor the release of inorganic phosphate by ATP hydrolysis [18]. The green complex formed between Malachite Green, molybdate, and free orthophosphate was measured by recording the absorbance at 620 nm.
# Results are the average of two independent experiments where the deviation was less than 10%.
substance,measurement,setting,value
"iron (III) phthalocyanine-4,4′,4″,4′″-tetrasulfonic acid [4,4-Fe-PcTs]",CFUs on co-treatment with ampicillin,"[1]; 4,4-Fe-PcTs 25 μM + AMP 40 μM, after 24 hours",eliminating all CFUs
same,effect on activity of chloramphenicol (bacteriostatic),"[1]; 4,4-Fe-PcTs 25 μM + CAM 46 μM",very slight effect
same,CFUs on co-treatment with ciprofloxacin,"[1]; 4,4-Fe-PcTs 25 μM + CFX 40 nM, after 24 hours",eliminating all CFUs
same,CFUs on co-treatment with kanamycin,"[1]; 4,4-Fe-PcTs 25 μM + KAN 43 μM, after 24 hours",eliminating all CFUs
same,effect on activity of spectinomycin (bacteriostatic),"[1]; 4,4-Fe-PcTs 25 μM + SPECT 808 μM",very slight effect
same,effect on activity of tetracycline (bacteriostatic),"[1]; 4,4-Fe-PcTs 25 μM + TET 21 μM",very slight effect
same,potentiation of ciprofloxacin activity,[1]; ciprofloxacin 40 nM,potentiated the activity of ciprofloxacin
same,colony forming units (CFUs),[1]; co-treated with ciprofloxacin 40 nM and compound at concentrations above 25 μM,no colony forming units (CFUs) were observed
same,potentiation of ciprofloxacin activity,[2],potentiated the activity of ciprofloxacin
same,potentiation of ciprofloxacin activity,[3],potentiated the activity of ciprofloxacin
same,effect on ciprofloxacin-induced biofilm formation,[4],reduced the ability of ciprofloxacin to induce
same,total number of viable and ciprofloxacin-resistant cells relative to ciprofloxacin alone,"[5]; 4,4-Fe-PcTs 25 μM + ciprofloxacin 40 nM",reduced
same,ciprofloxacin resistant mutants over time,[5]; cells treated with Fe-PcTs and ciprofloxacin,no ciprofloxacin resistant mutants were observed after day 4
same,ciprofloxacin-resistant colonies caused by pre-existing mutations,"[5]; ciprofloxacin (40 nM) and 4,4-Fe-PcTs (25 μM)",60%
same,potentiation of ciprofloxacin by pretreatment versus co-treatment only,"[6]; 4,4-Fe-PcTs given 24 hours prior to infection plus co-treatment",potentiated the activity of ciprofloxacin more
same,ciprofloxacin-resistant cells in thigh,"[6]; mice co-treated with ciprofloxacin 1 mg/kg and 4,4-Fe-PcTs 10 mg/kg i.p. (with or without pretreatment)",no ciprofloxacin resistant cells were observed
same,inhibition of EcRecA ATPase activity,[7],high degree of inhibition
